Assay [1] addresses Fibroblast growth factor receptor 1 (Homo sapiens, UniProt P11362). The experiment in a line: Inhibition of FGFR1 (unknown origin) expressed in baculovirus expression system using poly (Glu, Tyr) 4:1 as substrate after 60 mins by ELISA. A general note: In an ELISA, binding on a coated surface is turned into a signal by an enzyme label.
The target of assay [2] is Insulin-like growth factor 1 receptor (Homo sapiens, UniProt P08069). The experiment in a line: Inhibition of IGF1R (unknown origin) expressed in baculovirus expression system using poly (Glu, Tyr) 4:1 as substrate after 60 mins by ELISA.
In another assay the target is Ephrin type-A receptor 2 (Homo sapiens, UniProt P29317). The experiment in a line: Inhibition of recombinant EPHA2 (unknown origin) using poly (Glu, Tyr) 4:1 as substrate after 60 mins by ELISA.
The target in assay [3] is Platelet-derived growth factor receptor beta (Homo sapiens, UniProt P09619). Description: Inhibition of recombinant PDGFR-beta (unknown origin) using poly (Glu, Tyr) 4:1 as substrate after 60 mins by ELISA.
The target in assay [4] is Platelet-derived growth factor receptor alpha (Homo sapiens, UniProt P16234). The experiment in a line: Inhibition of recombinant PDGFR-alpha (unknown origin) using poly (Glu, Tyr) 4:1 as substrate after 60 mins by ELISA.
Assay [5] deals with Mast/stem cell growth factor receptor Kit (Homo sapiens, UniProt P10721). The experiment in a line: Inhibition of recombinant c-Kit (unknown origin) using poly (Glu, Tyr) 4:1 as substrate after 60 mins by ELISA.
Assay [6] deals with Vascular endothelial growth factor receptor 1 (Homo sapiens, UniProt P17948). Description: Inhibition of recombinant FLT-1 (unknown origin) using poly (Glu, Tyr) 4:1 as substrate after 60 mins by ELISA.
In assay [7] the target is Tyrosine-protein kinase ABL1 (Homo sapiens, UniProt P00519). The experiment in a line: Inhibition of recombinant ABL (unknown origin) using poly (Glu, Tyr) 4:1 as substrate after 60 mins by ELISA.
The target in assay [8] is Macrophage-stimulating protein receptor (Homo sapiens, UniProt Q04912). The experiment in a line: Inhibition of recombinant RON (unknown origin) using poly (Glu, Tyr) 4:1 as substrate after 60 mins by ELISA.
The target of assay [9] is Proto-oncogene tyrosine-protein kinase receptor Ret (Homo sapiens, UniProt P07949). The experiment in a line: Inhibition of recombinant RET (unknown origin) using poly (Glu, Tyr) 4:1 as substrate after 60 mins by ELISA.
In assay [10] the target is Receptor tyrosine-protein kinase erbB-4 (Homo sapiens, UniProt Q15303). Description: Inhibition of recombinant ErbB4 (unknown origin) using poly (Glu, Tyr) 4:1 as substrate after 60 mins by ELISA.
For assay [11], the target named is Receptor tyrosine-protein kinase erbB-2 (Homo sapiens, UniProt P04626). The experiment in a line: Inhibition of ErbB2 (unknown origin) expressed in baculovirus expression system using poly (Glu, Tyr) 4:1 as substrate after 60 mins by ELISA.
For another assay, the system named is NCI-H1975. Description: Antiproliferative activity against human NCI-H1975 cells expressing EGFR T790M mutant after 72 hrs by SRB assay. The class given is functional, cell-based. As to conditions: NCI-H1975, 72 h.
The target of assay [12] is Epidermal growth factor receptor (Homo sapiens, UniProt P00533, L858M/T790M). The experiment in a line: Inhibition of EGFR T790M/[…] double mutant (unknown origin) expressed in baculovirus expression system using poly (Glu, Tyr) 4:1 as substrate after 60 mins by ELISA.
Assay [13] concerns the target T1, Epidermal growth factor receptor (Homo sapiens, UniProt P00533). The experiment in a line: Inhibition of EGF-induced EGFR phosphorylation in human A431 cells assessed as decrease in ERK phosphorylation at 0.01 to 10 uM incubated for 1 hr prior to EGF induction measured after 10 mins by Western blotting analysis. The class given is cell-based. As to conditions: A-431. On the technique in general: Immunoblotting shows a protein as a band on a membrane.

In assay [14] the target is T1, Epidermal growth factor receptor. Description: Inhibition of EGF-induced EGFR phosphorylation in human A431 cells assessed as decrease in AKT phosphorylation at 0.01 to 10 uM incubated for 1 hr prior to EGF induction measured after 10 mins by Western blotting analysis. The class given is cell-based. To be noted: A-431.
Assay [15] shares this target. The experiment in a line: Inhibition of EGF-induced EGFR phosphorylation in human A431 cells at 0.01 uM incubated for 1 hr prior to EGF induction measured after 10 mins by Western blotting analysis. The class given is cell-based. As to conditions: A-431.
For assay [16] the target is unchanged. The experiment in a line: Inhibition of EGF-induced EGFR phosphorylation in human A431 cells incubated for 1 hr prior to EGF induction measured after 10 mins by Western blotting analysis. The class given is cell-based. To be noted: A-431.
Assay [17] has the same target. The experiment in a line: Inhibition of wild type EGFR (unknown origin) expressed in baculovirus expression system using poly (Glu, Tyr) 4:1 as substrate after 60 mins by ELISA.
The next assay deals with A-431. Description: Antiproliferative activity against human A431 cells after 72 hrs by SRB assay. It counts as functional, cell-based. To be noted: A-431, 72 h. (In general: Sulforhodamine B stains cellular protein and so reports cell mass.)
For assay [18], the target named is Vascular endothelial growth factor receptor 2 (Homo sapiens, UniProt P35968). The experiment in a line: Inhibition of KDR (unknown origin) expressed in baculovirus expression system using poly (Glu, Tyr) 4:1 as substrate after 60 mins by ELISA.
Assay [19] concerns Epidermal growth factor receptor (Homo sapiens), P00533 [T790M]. Description: Inhibition of EGF-induced EGFR T790M mutant autophosphorylation in human NCI-H1975 cells at 10 uM incubated for 1 hr prior to EGF induction measured after 10 mins by Western blotting analysis. It counts as cell-based.
For assay [20], the target named is T1, Epidermal growth factor receptor. The experiment in a line: Irreversible inhibition of EGFR (unknown origin) using 5-FAM-EEPLYWSFPAKKK-CONH2 as substrate at 100 fold IC50 preincubated for 30 mins followed by 100 fold dilution measured for 2 hrs.
Assay [21] has as its system Epidermal growth factor receptor (Homo sapiens), P00533 [T790M]. The experiment in a line: Inhibition of EGF-induced EGFR T790M mutant phosphorylation in human NCI-H1975 cells assessed as AKT phosphorylation at < 10 uM incubated for 1 hr prior to EGF induction measured after 10 mins by Western blotting analysis. The class given is cell-based.
For assay [22] the test system is unchanged. Description: Inhibition of EGF-induced EGFR T790M mutant phosphorylation in human NCI-H1975 cells assessed as ERK phosphorylation at < 10 uM incubated for 1 hr prior to EGF induction measured after 10 mins by Western blotting analysis. The class given is cell-based.

Calls of active or inactive are those of the source. The rule behind the calls is not given here.

T1 sequence (P00533 whole entry): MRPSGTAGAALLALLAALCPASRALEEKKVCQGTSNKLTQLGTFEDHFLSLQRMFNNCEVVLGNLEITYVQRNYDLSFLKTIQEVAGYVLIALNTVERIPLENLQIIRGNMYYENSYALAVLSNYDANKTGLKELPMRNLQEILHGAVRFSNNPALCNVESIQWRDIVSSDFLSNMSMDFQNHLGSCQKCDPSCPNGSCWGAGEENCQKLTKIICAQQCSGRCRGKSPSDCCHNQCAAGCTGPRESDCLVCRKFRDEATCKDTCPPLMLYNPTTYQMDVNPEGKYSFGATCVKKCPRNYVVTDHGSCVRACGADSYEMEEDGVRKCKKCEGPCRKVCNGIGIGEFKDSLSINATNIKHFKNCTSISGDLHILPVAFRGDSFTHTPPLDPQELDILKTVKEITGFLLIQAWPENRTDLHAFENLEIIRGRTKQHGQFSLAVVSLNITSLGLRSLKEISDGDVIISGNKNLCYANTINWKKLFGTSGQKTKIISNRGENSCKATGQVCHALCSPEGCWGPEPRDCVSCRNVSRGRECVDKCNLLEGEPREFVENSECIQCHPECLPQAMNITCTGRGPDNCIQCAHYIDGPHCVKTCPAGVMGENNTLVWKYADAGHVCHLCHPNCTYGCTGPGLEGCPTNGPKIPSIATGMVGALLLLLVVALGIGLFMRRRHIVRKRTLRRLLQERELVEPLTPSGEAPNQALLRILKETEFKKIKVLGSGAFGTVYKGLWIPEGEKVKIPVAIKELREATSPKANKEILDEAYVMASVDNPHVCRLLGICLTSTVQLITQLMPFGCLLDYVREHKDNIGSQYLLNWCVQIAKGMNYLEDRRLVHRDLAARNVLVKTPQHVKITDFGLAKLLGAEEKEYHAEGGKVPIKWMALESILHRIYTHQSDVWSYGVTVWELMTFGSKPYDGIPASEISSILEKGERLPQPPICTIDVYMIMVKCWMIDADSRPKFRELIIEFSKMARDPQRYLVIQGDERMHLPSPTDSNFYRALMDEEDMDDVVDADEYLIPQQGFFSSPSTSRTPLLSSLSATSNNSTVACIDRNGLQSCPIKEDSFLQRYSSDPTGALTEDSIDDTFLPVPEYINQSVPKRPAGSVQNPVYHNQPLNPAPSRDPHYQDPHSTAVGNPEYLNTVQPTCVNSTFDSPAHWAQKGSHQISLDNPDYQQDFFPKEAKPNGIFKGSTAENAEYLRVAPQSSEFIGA
Epidermal growth factor receptor (Homo sapiens), P00533 [T790M], sequence (P00533 whole entry T790M): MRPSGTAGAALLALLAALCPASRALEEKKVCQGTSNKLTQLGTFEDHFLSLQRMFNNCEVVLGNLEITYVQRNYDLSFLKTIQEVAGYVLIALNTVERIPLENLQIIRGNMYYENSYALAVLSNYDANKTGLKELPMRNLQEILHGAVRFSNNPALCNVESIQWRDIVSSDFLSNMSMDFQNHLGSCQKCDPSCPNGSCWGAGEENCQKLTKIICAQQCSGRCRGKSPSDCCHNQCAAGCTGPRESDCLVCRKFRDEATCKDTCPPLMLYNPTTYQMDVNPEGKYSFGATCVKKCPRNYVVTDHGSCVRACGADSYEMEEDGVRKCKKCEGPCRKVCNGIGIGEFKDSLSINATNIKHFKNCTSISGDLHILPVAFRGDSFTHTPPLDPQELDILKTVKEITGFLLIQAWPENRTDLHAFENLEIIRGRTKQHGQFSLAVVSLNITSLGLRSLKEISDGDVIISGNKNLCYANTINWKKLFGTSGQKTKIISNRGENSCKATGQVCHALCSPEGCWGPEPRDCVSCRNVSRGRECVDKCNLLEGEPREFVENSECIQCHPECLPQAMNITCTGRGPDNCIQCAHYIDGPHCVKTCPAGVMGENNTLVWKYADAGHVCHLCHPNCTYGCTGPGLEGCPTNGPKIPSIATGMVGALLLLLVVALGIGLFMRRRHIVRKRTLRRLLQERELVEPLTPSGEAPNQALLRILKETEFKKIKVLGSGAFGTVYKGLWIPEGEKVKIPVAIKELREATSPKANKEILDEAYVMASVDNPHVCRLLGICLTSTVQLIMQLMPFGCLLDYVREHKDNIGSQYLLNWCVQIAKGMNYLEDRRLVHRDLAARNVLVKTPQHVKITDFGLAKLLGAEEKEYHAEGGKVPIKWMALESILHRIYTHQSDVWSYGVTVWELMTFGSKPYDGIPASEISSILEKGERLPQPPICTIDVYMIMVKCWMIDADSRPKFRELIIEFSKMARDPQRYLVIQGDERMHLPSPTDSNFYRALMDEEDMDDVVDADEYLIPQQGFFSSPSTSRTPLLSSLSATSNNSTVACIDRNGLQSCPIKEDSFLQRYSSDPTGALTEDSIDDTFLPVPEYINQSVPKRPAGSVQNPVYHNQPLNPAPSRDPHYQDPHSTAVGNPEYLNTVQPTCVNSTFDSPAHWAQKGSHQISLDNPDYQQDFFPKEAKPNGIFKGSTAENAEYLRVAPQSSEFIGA
Vascular endothelial growth factor receptor 2, sequence (P35968 whole entry): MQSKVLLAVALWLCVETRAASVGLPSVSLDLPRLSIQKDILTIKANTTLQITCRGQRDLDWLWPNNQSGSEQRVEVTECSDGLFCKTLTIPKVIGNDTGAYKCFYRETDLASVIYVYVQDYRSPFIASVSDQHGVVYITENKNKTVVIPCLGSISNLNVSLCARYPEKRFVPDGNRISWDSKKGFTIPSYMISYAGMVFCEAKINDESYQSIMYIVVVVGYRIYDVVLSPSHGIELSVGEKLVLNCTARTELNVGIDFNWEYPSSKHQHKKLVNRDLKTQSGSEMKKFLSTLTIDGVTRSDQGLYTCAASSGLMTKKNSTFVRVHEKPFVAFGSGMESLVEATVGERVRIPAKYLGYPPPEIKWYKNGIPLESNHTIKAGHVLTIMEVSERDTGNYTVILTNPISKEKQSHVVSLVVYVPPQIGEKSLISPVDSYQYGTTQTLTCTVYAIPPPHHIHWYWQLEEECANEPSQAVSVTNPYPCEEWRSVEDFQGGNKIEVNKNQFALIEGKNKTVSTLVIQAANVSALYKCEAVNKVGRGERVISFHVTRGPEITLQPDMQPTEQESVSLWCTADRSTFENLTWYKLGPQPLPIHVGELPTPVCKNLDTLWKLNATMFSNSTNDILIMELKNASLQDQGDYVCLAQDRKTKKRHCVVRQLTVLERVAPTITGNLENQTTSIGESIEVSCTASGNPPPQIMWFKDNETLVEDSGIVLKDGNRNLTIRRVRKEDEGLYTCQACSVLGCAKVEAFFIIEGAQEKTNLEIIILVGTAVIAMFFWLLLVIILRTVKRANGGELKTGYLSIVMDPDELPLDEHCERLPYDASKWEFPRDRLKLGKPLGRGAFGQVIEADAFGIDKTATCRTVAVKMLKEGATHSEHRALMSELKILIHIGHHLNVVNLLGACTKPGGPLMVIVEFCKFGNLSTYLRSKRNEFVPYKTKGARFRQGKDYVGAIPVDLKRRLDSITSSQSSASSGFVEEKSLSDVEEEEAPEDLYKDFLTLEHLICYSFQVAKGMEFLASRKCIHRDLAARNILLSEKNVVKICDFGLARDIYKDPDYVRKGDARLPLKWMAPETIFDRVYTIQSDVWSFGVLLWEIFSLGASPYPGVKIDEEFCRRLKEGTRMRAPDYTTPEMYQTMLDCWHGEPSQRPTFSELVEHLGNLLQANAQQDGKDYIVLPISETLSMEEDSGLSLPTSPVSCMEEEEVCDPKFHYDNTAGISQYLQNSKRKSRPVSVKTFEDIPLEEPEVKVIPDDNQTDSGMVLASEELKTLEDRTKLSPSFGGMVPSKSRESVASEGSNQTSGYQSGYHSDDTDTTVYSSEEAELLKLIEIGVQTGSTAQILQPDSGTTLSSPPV
Platelet-derived growth factor receptor beta, sequence (P09619 whole entry): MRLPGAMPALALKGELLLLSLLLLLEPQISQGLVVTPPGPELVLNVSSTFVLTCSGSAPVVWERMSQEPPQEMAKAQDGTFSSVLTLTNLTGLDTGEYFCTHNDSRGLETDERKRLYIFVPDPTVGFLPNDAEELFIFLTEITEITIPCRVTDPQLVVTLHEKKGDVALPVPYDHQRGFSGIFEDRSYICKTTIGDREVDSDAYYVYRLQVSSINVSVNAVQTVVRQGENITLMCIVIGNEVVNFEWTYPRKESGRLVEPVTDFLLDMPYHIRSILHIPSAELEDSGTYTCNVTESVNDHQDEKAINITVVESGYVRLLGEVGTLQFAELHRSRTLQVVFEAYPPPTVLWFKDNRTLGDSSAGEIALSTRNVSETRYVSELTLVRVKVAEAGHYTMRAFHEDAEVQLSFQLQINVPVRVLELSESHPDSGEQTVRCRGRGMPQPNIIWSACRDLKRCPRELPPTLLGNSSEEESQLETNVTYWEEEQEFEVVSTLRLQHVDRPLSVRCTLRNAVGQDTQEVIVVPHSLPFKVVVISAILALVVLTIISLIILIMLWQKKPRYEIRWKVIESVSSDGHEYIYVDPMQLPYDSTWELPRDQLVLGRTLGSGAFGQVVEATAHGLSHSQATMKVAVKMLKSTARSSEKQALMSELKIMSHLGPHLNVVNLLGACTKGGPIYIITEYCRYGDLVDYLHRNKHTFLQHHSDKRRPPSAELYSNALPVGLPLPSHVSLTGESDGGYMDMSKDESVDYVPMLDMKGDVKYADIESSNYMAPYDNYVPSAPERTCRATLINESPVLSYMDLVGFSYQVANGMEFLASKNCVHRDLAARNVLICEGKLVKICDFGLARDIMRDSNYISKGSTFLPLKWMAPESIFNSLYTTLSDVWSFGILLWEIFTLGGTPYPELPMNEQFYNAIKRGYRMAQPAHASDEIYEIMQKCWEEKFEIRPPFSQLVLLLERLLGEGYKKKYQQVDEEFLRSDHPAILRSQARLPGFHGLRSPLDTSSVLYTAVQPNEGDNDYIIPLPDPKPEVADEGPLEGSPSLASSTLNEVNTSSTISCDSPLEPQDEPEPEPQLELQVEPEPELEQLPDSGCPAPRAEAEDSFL

What is called IC50 is the concentration needed to halve the response being measured. On to `CCN(CC)CCCNC(=O)Nc1cc2c(Nc3ccc(F)c(Cl)c3)ncnc2cc1O[C@H]1CCOC1`, for which the IC50 (in [1]; in assay [2]; on Ephrin type-A receptor 2; in assay [3]; in [4]; in [5]) was more than 10 µM each time. Further, the IC50 in assay [6] was more than 10 µM; in [7], 0.566 µM; in assay [8] it was more than 10 µM; in [9] it was 0.347 µM; in assay [10] it was 0.008 µM; in [11], 0.078 µM. For the same molecule, the IC50 is 4.3 µM in the assay on NCI-H1975; 3.06 µM in [12]; 0.032 µM in [17]; 0.196 µM with A-431; more than 10 µM in assay [18]. The inhibition result in assay [13], in [14] and in assay [15] was “Active” in each case. The inhibition result in assay [16] is “Dose-dependent effect”.

For the molecule `O=C(NCCN1CCCC1)Nc1cc2c(Nc3ccc(F)c(Cl)c3)ncnc2cc1O[C@H]1CCOC1`, the inhibition result in [19] and in [20] was “Active” in each case. Further, the IC50 (in assay [1]; in assay [2]; at Ephrin type-A receptor 2; in assay [3]; in assay [4]; in assay [5]) was more than 10 µM each time. Besides, the IC50 is more than 10 µM in assay [6]; more than 10 µM in [7]; 6.1 µM in assay [8]; 0.223 µM in [9]; 0.012 µM in [10]; 0.112 µM in assay [11]. Also, the IC50 in the assay with NCI-H1975 is 5.3 µM; in assay [12], 0.061 µM; in assay [17], 0.068 µM; in the assay with A-431, 0.247 µM; in assay [18] it was more than 10 µM. The inhibition result in assay [21] and in assay [22] was “inactive” in each case.

(Values after ChEMBL document CHEMBL3091333, “Design, synthesis and biological evaluation of novel 4-anilinoquinazolines with C-6 urea-linked side chains as inhibitors of the epidermal growth factor receptor” (Bioorg Med Chem, 2013).)
